Assay results as given in US11207371B2, “Composition for improving or preventing nonalcoholic fatty liver” (KOHJIN LIFE SCIENCES CO., LTD., priority 2015, dated 2021).

Experiments:
[1] = tested on: Mice (C57/B6J, 8 weeks old male) fed with high-fat food
Text: Mice (C57/B6J, 8 weeks old male) were divided into 4 groups (5 animals each), and the first group (DB) was freely fed with ordinary food (Certified Diet “MF” manufactured by Oriental Yeast Co., ltd.). The second group (HFD) was freely fed with high-fat food (High Fat Diet 32, manufactured by CLEA Japan, Inc.), […].
When the mouse was 20 weeks old, the body weight, the liver weight, the serum aspartate aminotransferase (AST), the alanine aminotransferase (ALT), the serum triglyceride (TG), the free fatty acid value (FFA) and the total cholesterol value (T-cho) were measured.

[2] = tested on: subjects who had NAFLD in 31 IU/L or more of ALT; settings: Case IDs 1 to 9 (group affected); at least one week after initiation; glutathione 300 mg per day orally

Which results are given for `N[C@@H](CCC(=O)N[C@@H](CS)C(=O)NCC(=O)O)C(=O)O` [glutathione]?
serum AST ([1]; HFD6 (6 mg/kg/day) and HFD60 (60 mg/kg/day) groups in comparison to the HFD group, 20 weeks old, concentration dependent, FIG. 5A): significant decrease; serum ALT ([1]; HFD6 (6 mg/kg/day) and HFD60 (60 mg/kg/day) groups in comparison to the HFD group, 20 weeks old, concentration dependent, FIG. 5B): significant decrease; serum TG (triglyceride value) ([1]; HFD6 (6 mg/kg/day) and HFD60 (60 mg/kg/day) groups in comparison to the HFD group, 20 weeks old, concentration dependent, FIG. 6A): significant decrease; serum FFA (free fatty acid value) ([1]; HFD6 (6 mg/kg/day) and HFD60 (60 mg/kg/day) groups in comparison to the HFD group, 20 weeks old, concentration dependent, FIG. 6B): significant decrease; serum T-cho (total cholesterol value) ([1]; HFD6 (6 mg/kg/day) and HFD60 (60 mg/kg/day) groups in comparison to the HFD group, 20 weeks old, concentration dependent, FIG. 6C): significant decrease; consumption amount of feed ([1]; all of the groups (DB, HFD, HFD6, HFD60), FIG. 3A): no significant difference; consumption amount of water ([1]; all of the groups (DB, HFD, HFD6, HFD60), FIG. 3B): no significant difference; liver weight ([1]; high-fat food mice, glutathione 6 and 60 mg/kg/day in water, 20 weeks old, FIG. 4A): decreased dependently on the concentration; ratio of liver weight/body weight ([1]; high-fat food mice, glutathione 6 and 60 mg/kg/day in water, 20 weeks old, FIG. 4B): decrease of the body weight ratio was also recognized; deposition of fat on the liver by high-fat food ([1]; high-fat food mice, glutathione 6 and 60 mg/kg/day in water, concluded from liver weight): suppressed; body weight ([1]; high-fat food mice, glutathione 6 or 60 mg/kg/day in water, FIGS. 1 and 2): decrease of the body weight was recognized; improvement of ALT after the administration versus before initiation (0 wk) [2]: ≥ 20%
